Measured values published in patent US11491148B2, “Amide derivatives useful in the treatment of HBV infection or HBV-induced diseases” (Janssen Sciences Ireland Unlimited Company, priority 2019, dated 2022).
Like-named read-outs stand apart in the source and are kept apart here.

What was measured:
HBV = test: Anti-HBV activity, intracellular HBV DNA by real-time PCR (HBV-AVE-HepG2.117); assay type: cell-based, Hepatitis B virus; settings: read-out: HBV-AVE-HepG2.117 EC50 (μM; mean value)
Protocol: The anti HBV activity was measured using the HepG2.117 cell line, a stable, inducible HBV producing cell line, which replicates HBV in the absence of doxicycline (Tet-off system). The HepG2 cell line is available from ATCC®) under number HB-8065. Transfection of the HepG2 cell line can be as described in Sun and Nassal 2006 Journal of Hepatology 45 (2006) 636-645 “Stable HepG2- and Huh7-based human hepatoma cell lines for efficient regulated expression of infectious hepatitis B virus”.
For the antiviral assay, HBV replication was induced, followed by a treatment with serially diluted compound in 96-well plates. After 3 days of treatment, the antiviral activity was determined by quantification of intracellular HBV DNA using real-time PCR and an HBV specific primer set and probe.

HepG2.117 cells = test: Cytotoxicity, ATPlite cell viability (TOX-HepG2.117); assay type: cell-based, human
Protocol: (§1) Cytotoxicity of the compounds was tested using HepG2 or HepG2.117 cells, incubated for 3 days in the presence of compounds. The viability of the cells was assessed using the Perkin Elmer ATPlite Luminescence Assay System.”

[1] = as above; assay type: cell-based, human; settings: human; HepG2.117 cells, incubated for 3 days, ATPlite, mean value
Protocol: as §1

[2] = HepG2.117 cell line, 3 days of treatment, intracellular HBV DNA, mean value
[3] = Hepatitis B virus, HepG2.117, 72 h, HepG2.117 cell line, 3 days of treatment, intracellular HBV DNA, mean value

Row | SMILES | EC50 (HBV; [2]) | CC50 (HepG2.117 cells) | EC50 (HBV; Hepatitis B virus, HepG2.117, 72 h) | CC50 at 3 days [1] | EC50 (HBV; [3])
1 | C[C@H]1[C@H](C(=O)Nc2cc(F)c(F)c(F)c2)CCN1C(=O)C(=O)NC1(c2c[nH]nn2)CC(F)(F)C1 [C3′] | > 2.5 µM | > 50000 nM | – | – | –
2 | C[C@H]1[C@H](C(=O)Nc2ccc(F)c(C#N)c2)CCN1C(=O)C(=O)NC1(c2c[nH]nn2)CC(F)(F)C1 [C6′] | 2.91 µM | > 50000 nM | – | – | –
3 | C[C@H]1[C@@H](C(=O)Nc2cc(F)c(F)c(Br)c2)CCN1C(=O)C(=O)NC1(c2c[nH]nn2)CC(F)(F)C1 [C21, (2S,3S)—N-(3-bromo-4,5-difluorophenyl)-1-(2-((3,3-difluoro-1-(1H-1,2,3-triazol-4-yl)cyclobutyl)amino)-2-oxoacetyl)-2-methylpyrrolidine-3-carboxamide] | – | – | 0.012 µM | > 50 µM | –
4 | C[C@H]1[C@@H](C(=O)Nc2ccc(F)c(F)c2F)CCN1C(=O)C(=O)NC1(c2c[nH]nn2)CC(F)(F)C1 [C22] | – | – | – | > 50 µM | 0.026 µM
5 | Cc1c(F)ccc(NC(=O)[C@H]2CCN(C(=O)C(=O)NC3(c4c[nH]nn4)CC(F)(F)C3)[C@H]2C)c1F [C23] | – | – | – | > 50 µM | 0.016 µM
6 | Cc1cc(NC(=O)[C@H]2CCN(C(=O)C(=O)NC3(c4c[nH]nn4)CC(F)(F)C3)[C@H]2C)cc(Cl)c1F [C24] | – | – | – | > 50 µM | 0.012 µM
7 | C[C@H]1[C@@H](C(=O)Nc2cc(F)c(F)c(F)c2)CCN1C(=O)C(=O)NC1(c2nn[nH]c2Cl)CC(F)(F)C1 [C26] | – | – | – | > 50 µM | 0.176 µM
8 | Cc1cc(NC(=O)[C@H]2CCN(C(=O)C(=O)NC3(c4c[nH]nn4)CC(F)(F)C3)[C@H]2C)cc(F)c1F [C27] | – | – | – | > 50 µM | 0.012 µM
9 | C[C@H]1C[C@H](C(=O)Nc2cc(F)c(F)c(F)c2)[C@H](C)N1C(=O)C(=O)NC1(c2c[nH]nn2)CC(F)(F)C1 [C35] | – | – | – | > 50 µM | 0.011 µM
10 | C[C@H]1C[C@H](C(=O)Nc2cc(F)c(F)c(F)c2)[C@H](C)N1C(=O)C(=O)NC(CC(F)(F)F)c1c[nH]nn1 (some centres unmarked) [C36] | – | – | – | > 50 µM | < 0.01 µM
11 | Cc1[nH]nnc1C1(NC(=O)C(=O)N2CC[C@H](C(=O)Nc3cc(F)c(F)c(F)c3)[C@@H]2C)CC(F)(F)C1 [C38] | – | – | – | > 50 µM | 0.012 µM
12 | C[C@H]1[C@@H](C(=O)Nc2cc(F)c(F)c(F)c2)CCN1C(=O)C(=O)N[C@]1(c2c[nH]nn2)C[C@H](C(F)F)C1 [C39c] | – | – | – | > 50 µM | 0.062 µM
13 | C[C@H]1[C@@H](C(=O)Nc2cc(F)c(F)c(F)c2)CCN1C(=O)C(=O)N[C@]1(c2c[nH]nn2)C[C@@H](C(F)F)C1 [C39t] | – | – | – | > 50 µM | 0.033 µM
